# Source: US20070059785A1, “Biomarkers in cancer” (SMITHKLINE BEECHAM CORPORATION, priority 2003, published 2007)
# Entries after “also recorded” stand apart in the source; their conditions may differ.
# What was measured:
# erbB2 [1] = target: T1, erbB2 (Homo sapiens, UniProt P04626); assay: IP Western blot of activated erbB2 (p-Tyr/erbB2) in S1 cells; assay type: cell-based; design: endogenous in cells; details: 72 h
# Method: FIG. 1. […] The erbB2 overexpressing human breast adenocarcinoma cell line, BT474, was obtained from the American Type Culture Collection (Rockville, M, USA). […] The EGFR overexpressing LICR-LON-HN5 head and neck carcinoma cell line, HN5, was kindly provided by Helmout Modjtahedi at the Institute of Cancer Research, Surrey, U.K.
# (§1) Cell cultures were maintained in a humidified atmosphere of 5% CO2 at 37° C.
# (§2) Protein concentrations were determined using a modification of the Bradford method (Bio-Rad Laboratory).
# (§3) For IP Western blots, equivalent amounts of protein were precleared with Protein G Plus/Protein A agarose overnight at 4° C. Precleared lysates were then incubated overnight at 4° C. with specific antibodies. Immune complexes were precipitated with Protein G Plus/Protein A agarose beads, washed in RIPA buffer and then boiled in sample loading buffer. Steady state levels of total Erk1/2 and activated Erk1/2 (p-Erk) as well as total AKT protein and activated AKT (p-AKT) protein were assessed by Western blot. […] Proteins were transferred to Immobilon-P or nitrocellulose membranes. Efficiency and equal loading of proteins was evaluated by Ponceau S staining. Membranes were blocked for 1 hr in TBS (25 mM Tris-HCl, pH 7.4, 150 mM NaCl, 2.7 mM KCl) containing 4% (w/v) lowfat milk or 3% BSA (w/v). Membranes were then probed with specific antibodies recognizing target proteins. […]
# Erk1/2 [2] = assay: Western blot of p-Erk1/2 in HN5 cells; assay type: cell-based, human; details: for p-Erk1/2: HN5, exponentially growing, 72 h
# Method: (§4) The erbB2 overexpressing human breast adenocarcinoma cell line, BT474, was obtained from the American Type Culture Collection (Rockville, M, USA). […] The EGFR overexpressing LICR-LON-HN5 head and neck carcinoma cell line, HN5, was kindly provided by Helmout Modjtahedi at the Institute of Cancer Research, Surrey, U.K.
# (§5) For IP Western blots, equivalent amounts of protein were precleared with Protein G Plus/Protein A agarose overnight at 4° C. Precleared lysates were then incubated overnight at 4° C. with specific antibodies. Immune complexes were precipitated with Protein G Plus/Protein A agarose beads, washed in RIPA buffer and then boiled in sample loading buffer. Steady state levels of total Erk1/2 and activated Erk1/2 (p-Erk) as well as total AKT protein and activated AKT (p-AKT) protein were assessed by Western blot. […] Proteins were transferred to Immobilon-P or nitrocellulose membranes. Efficiency and equal loading of proteins was evaluated by Ponceau S staining. Membranes were blocked for 1 hr in TBS (25 mM Tris-HCl, pH 7.4, 150 mM NaCl, 2.7 mM KCl) containing 4% (w/v) lowfat milk or 3% BSA (w/v). Membranes were then probed with specific antibodies recognizing target proteins. Proteins were visualized with the SUPERSIGNAL® West Femto Maximum sensitivity substrate kit (Pierce).
# Cell lysates were prepared and total Erk1/2 and activated Erk1/2 (p-Erk1/2) were assessed by Western blot.
# HN5 cells = details: Rusnak et al.; cited from earlier work
# erbB2 [3] = target: T1, erbB2; assay: IP Western blot of p-Tyr/erbB2 in BT474 cells, with or without EGF; assay type: cell-based; design: endogenous in cells; details: BT474, 1 μM, 24 h serum-free; not reversed by EGF
# Method: as §4, §1, §2, §3
# AKT = assay: Western blot of p-AKT in BT474 cells; assay type: cell-based, human; details: BT474, 1 μM, 24 h serum-free; not reversed by EGF
# Method: as §4, §5
# BT474 is an erbB2 overexpressing breast carcinoma line that also expresses EGFR, albeit at lower levels. […]
# Erk1/2 [4] = assay: HN5 tumor xenograft, p-Erk1/2 and total Erk1/2 by Western blot; assay type: in vivo, CD-1 nude mice
# Method: (§6) Total Erk1/2, total AKT, activated Erk1/2 (p-Erk1/2), and activated AKT (p-AKT) were assessed by Western blot loading equal amounts of protein from tumor biopsies.
# HN5 cells were grown in DMEM supplemented with 10% fetal bovine serum, sodium pyruvate and L-glutamine at 37° C. in a 95/5% air/CO2 atmosphere. […] Cells (2×10^6/mouse) in 0.2 ml were injected into the right flank of CD-1 nude mice. Female CD-1 nude mice were acquired from Charles River Laboratories. Mice were maintained in filter-topped cages in an aseptic environment with laminar flow filtered ventilation. […] Tumors were biopsied pre-treatment and 4 hours after the last dose. All animal surgery was conducted under aseptic conditions. For the initial biopsy, mice were anesthetized with isofluorane inhalation. The skin over the tumor was disinfected with iodine. A small hemostat was used to tease away the skin from the tumor, and scissors were used to make a 1 cm incision over the tumor. A scalpel and forceps were used to remove approximately 100 mg of tumor. The tumor was then frozen in liquid nitrogen. Wound clips were used to close the incision. The anesthetized mice were kept warm until they recovered mobility, usually less than 1-2 minutes. For the terminal biopsy, mice were euthanized with CO2 inhalation, and the remainder of the tumor excised. HN5 tumors were placed on dry ice in vials containing cold isopentane, and stored at −80 C prior to study. BT474 tumor samples were fixed for 2-3 hours in phosphatase inhibitor consisting of sodium fluoride and sodium pervanadate in 10% neutral buffered formalin. Following fixative treatment, BT474 samples were washed in water and stored in 70% ethanol prior to study. Cell extracts were prepared by homogenization in RIPA buffer at 4° C.
# as §6
# Erk1/2 [5] = assay: BT474 tumor xenograft, p-Erk1/2 and total Erk1/2 by Western blot; assay type: in vivo, C.B-17 SCID mice
# Method: (§7) The tumor implant was removed after the final treatment dose. Activated receptor (p-Tyr/ErbB-2) was assessed by IP Western blot and total ErbB-2 steady state protein (ErbB-2), total Erk1/2 and activated Erk1/2 (p-Erk1/2) were assessed by Western blot loading equal amounts of protein from tumor biopsies.
# Cell extracts were prepared by homogenization as described for HN5 xenografts.
# as §7, with “BT474” for “The”, “xenografts (subcutaneous) were established as described in Materials and Methods. […] Controls were treated with vehicle alone. […]” for “implant was removed after the final treatment dose.”
# Erk1/2 [6] = assay: Western blot of p-Erk1/2 in BT474 cells; assay type: cell-based, human; details: for p-Erk1/2: BT474, exponentially growing, 72 h
# Method: as §4, §5
# BT474 is an erbB2 overexpressing breast carcinoma line that also expresses EGFR, albeit at lower levels. BT474 cells constitutively express activated erbB2 (p-Tyr/erbB2). […] Cell lysates were prepared and total Erk1/2 and activated Erk1/2 (p-Erk1/2) were assessed by Western blot.
# cyclin D1 = assay: Clinical tumor biopsies, cyclin D1 by quantitative IHC
# Excerpt: All subjects provided written informed consent.
# “Cyclin D1” refers to total cyclin D1 present as measured by immunohistochemistry and reported by OD;
# T1 sequence (P04626 23-1255): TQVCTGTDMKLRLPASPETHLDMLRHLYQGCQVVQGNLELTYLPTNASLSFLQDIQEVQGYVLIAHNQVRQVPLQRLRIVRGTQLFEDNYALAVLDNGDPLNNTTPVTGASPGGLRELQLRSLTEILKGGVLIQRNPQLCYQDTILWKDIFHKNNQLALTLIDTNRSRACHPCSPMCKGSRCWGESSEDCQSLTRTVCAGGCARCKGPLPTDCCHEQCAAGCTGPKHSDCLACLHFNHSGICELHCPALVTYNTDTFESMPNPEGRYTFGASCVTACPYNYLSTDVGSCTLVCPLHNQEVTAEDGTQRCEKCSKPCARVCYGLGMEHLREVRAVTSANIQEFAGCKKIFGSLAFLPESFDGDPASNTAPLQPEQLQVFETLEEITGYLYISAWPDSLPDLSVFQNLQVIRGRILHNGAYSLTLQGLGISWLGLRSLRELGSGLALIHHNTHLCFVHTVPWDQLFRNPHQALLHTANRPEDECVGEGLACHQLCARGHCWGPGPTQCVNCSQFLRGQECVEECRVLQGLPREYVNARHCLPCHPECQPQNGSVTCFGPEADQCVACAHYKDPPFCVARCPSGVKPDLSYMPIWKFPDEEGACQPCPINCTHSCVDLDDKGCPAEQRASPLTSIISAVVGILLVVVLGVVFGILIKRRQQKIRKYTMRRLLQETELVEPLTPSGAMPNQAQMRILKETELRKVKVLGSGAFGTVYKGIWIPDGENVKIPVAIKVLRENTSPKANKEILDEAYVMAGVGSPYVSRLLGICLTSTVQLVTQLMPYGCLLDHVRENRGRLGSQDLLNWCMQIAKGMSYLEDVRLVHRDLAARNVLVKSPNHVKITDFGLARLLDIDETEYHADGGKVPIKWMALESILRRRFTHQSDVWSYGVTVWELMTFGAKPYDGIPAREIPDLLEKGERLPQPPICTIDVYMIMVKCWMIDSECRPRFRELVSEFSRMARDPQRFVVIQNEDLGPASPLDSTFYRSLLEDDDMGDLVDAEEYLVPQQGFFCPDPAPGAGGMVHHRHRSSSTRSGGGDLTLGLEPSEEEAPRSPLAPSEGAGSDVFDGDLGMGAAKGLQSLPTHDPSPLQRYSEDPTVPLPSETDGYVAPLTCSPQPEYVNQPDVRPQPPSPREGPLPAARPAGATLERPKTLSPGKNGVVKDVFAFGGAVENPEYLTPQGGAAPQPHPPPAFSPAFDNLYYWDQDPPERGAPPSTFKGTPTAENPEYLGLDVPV
compound,measurement,setting,value
"CS(=O)(=O)CCNCc1ccc(-c2ccc3ncnc(Nc4ccc(OCc5cccc(F)c5)c(Cl)c4)c3c2)o1 [GW572016, N-{3-Chloro-4-[(3-fluorobenzyl)oxy]phenyl}-6-[5-({[2-(methylsulfonyl)ethyl]amino}methyl)-2-furyl]-4-quinazolinamine]",inhibition of erbB2 tyrosine phosphorylation (p-Tyr/erbB2),erbB2 [1]; 500 nM,Partial inhibition
same,inhibition of erbB2 tyrosine phosphorylation (p-Tyr/erbB2),erbB2 [1]; 2.5 μM,complete inhibition
same,downstream p-Erk1/2,"Erk1/2 [2]; HN5, 5 μM, 24 h serum-free, not reversed by EGF",inhibited
same,total Erk1/2 steady state protein levels,"Erk1/2 [2]; HN5, 72 h, GW572016 0.5 or 1 μM, Herceptin 10 μg/ml",Neither Herceptin™ nor GW572016 reduced
same,p-Erk1/2,Erk1/2 [2]; 500 nM,inhibited
same,p-Erk1/2,Erk1/2 [2]; 1 μM,inhibited
same,apoptosis,HN5 cells,increased only slightly
same,baseline levels of p-Tyr/erbB2,erbB2 [3],inhibited
same,p-AKT,AKT,completely inhibited
same,effect on p-Erk1/2,"Erk1/2 [4]; 10 mg/kg, data not shown",little effect
same,p-Erk1/2 in tumors,Erk1/2 [4]; 30 mg/kg/dose,inhibited
same,total steady state Erk1/2 protein levels,Erk1/2 [4]; 30 mg/kg/dose,without affecting
same,total Erk1/2 steady state protein levels,Erk1/2 [5]; 100 mg/kg,without effects
same,p-Erk1/2,"Erk1/2 [5]; 100 mg/kg oral twice daily, five doses",inhibited; also recorded: decreased
same,EGF stimulation of p-Erk1/2,"Erk1/2 [6]; BT474, 1 μM, 24 h serum-free, EGF 50 ng/ml",inhibited
same,total Erk1/2 steady state protein levels,"Erk1/2 [6]; BT474, 72 h, GW572016 0.5 or 1 μM, Herceptin 10 μg/ml",Neither Herceptin™ nor GW572016 reduced
same,p-Erk1/2,Erk1/2 [6]; 500 nM,inhibited
same,p-Erk1/2,Erk1/2 [6]; 1 μM,inhibited
same,reduction of cyclin D1 protein expression,"cyclin D1; patient 361, 1200 mg/day, d 21",90%
same,cyclin D1 OD,"cyclin D1; patient 361, breast, 1200 mg/d, day 21 (day 0: 31)",3 OD
same,cyclin D1 OD,"cyclin D1; patient 362, adenocarcinoma unknown primary, 900 mg/d, day 21 (day 0: 26)",37 OD
same,cyclin D1 OD,"cyclin D1; patient 363, sarcoma, 500 mg/d, day 21 (day 0: 1)",12 OD
same,reduction of cyclin D1 expression,"cyclin D1; patient 364, 1600 mg/day, 21 days of therapy",50%
same,cyclin D1 OD,"cyclin D1; patient 364, head & neck, 1600 mg/d, day 21 (day 0: 66)",33 OD
same,cyclin D1 OD,"cyclin D1; patient 367, adenocarcinoma unknown primary, 650 mg/d, day 21 (day 0: 46)",39 OD
same,cyclin D1 OD,"cyclin D1; patient 369, head & neck, 1200 mg/d, day 21 (day 0: 39)",22 OD
same,cyclin D1 OD,"cyclin D1; patient 371, breast, 900 mg/d, day 21 (day 0: 42)",10 OD
same,cyclin D1 OD,"cyclin D1; patient 372, breast, 1200 mg/d, day 21 (day 0: 20)",4 OD
same,Cyclin D1,"cyclin D1; patient 425, inflammatory breast cancer, 1200 mg/d ditosylate salt, day 21 (day 0: 19)",12 OD
